Results reported in ChEMBL document CHEMBL5360625, “Design, Synthesis, and Antitumor Activity Evaluation of 2-Arylmethoxy-4-(2,2'-dihalogen-substituted biphenyl-3-ylmethoxy) Benzylamine Derivatives as Potent PD-1/PD-L1 Inhibitors” (J Med Chem, 2023).
Calls of active or inactive are those of the source. No cut-off for these calls is given here.

Tests used:
MC-38 [1] = test: Immunomodulatory activity in mouse MC38 cells implanted in PD-1/PD-L1 humanized C57/BL6 mouse assessed as increase in CXCL10 mRNA expression level in tumor at 50 mg/kg, IG qd administered on day 5 measured after 2 weeks by RT-PCR analysis; assay type: functional, organism-based
[2] = Clearance in Sprague-Dawley rat at 40 mg/kg, IG measured upto 48 hrs by LC-MS/MS analysis; assay type: ADME, organism-based; conditions: Sprague-Dawley, in vivo, po
[3] = Apparent volume of distribution in Sprague-Dawley rat at 8 mg/kg, iv measured upto 48 hrs by LC-MS/MS analysis; assay type: ADME, organism-based; conditions: Sprague-Dawley, in vivo, read-out: Vz
[4] = Toxicity in PD-1/PD-L1 humanized C57/BL6 mouse implanted with mouse MC38 cells assessed as morphological change in lung at 50 mg/kg, IG qd administered on day 5 measured after 2 weeks by hematoxylin-eosin staining based inverted fluorescent microscopic analysis; assay type: organism-based, MC-38; conditions: in vivo, po, 336 h
[5] = Cmax in Sprague-Dawley rat at 10 mg/kg, ip measured upto 48 hrs by LC-MS/MS analysis; assay type: ADME, organism-based; design: time < 48 hrs, dose 10 mg/kg, route ip; conditions: in vivo
[6] = target: Programmed cell death protein 1/Programmed cell death 1 ligand 1 (Homo sapiens, UniProt Q9NZQ7); test: Inhibition of PD-1/PD-L1 interaction (unknown origin) incubated for 1 hr by HTRF assay; assay type: protein-complex assay
Sequence of Programmed cell death protein 1/Programmed cell death 1 ligand 1 (Q15116 whole entry): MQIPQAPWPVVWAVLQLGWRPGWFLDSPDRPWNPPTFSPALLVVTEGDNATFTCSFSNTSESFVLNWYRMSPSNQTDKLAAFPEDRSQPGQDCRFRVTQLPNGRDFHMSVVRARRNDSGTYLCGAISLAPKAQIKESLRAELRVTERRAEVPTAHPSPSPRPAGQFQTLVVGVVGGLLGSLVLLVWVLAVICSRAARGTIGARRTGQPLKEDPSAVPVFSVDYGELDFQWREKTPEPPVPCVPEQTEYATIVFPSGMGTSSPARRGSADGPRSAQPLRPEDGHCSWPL
Sequence of Programmed cell death protein 1/Programmed cell death 1 ligand 1 (Q9NZQ7 whole entry): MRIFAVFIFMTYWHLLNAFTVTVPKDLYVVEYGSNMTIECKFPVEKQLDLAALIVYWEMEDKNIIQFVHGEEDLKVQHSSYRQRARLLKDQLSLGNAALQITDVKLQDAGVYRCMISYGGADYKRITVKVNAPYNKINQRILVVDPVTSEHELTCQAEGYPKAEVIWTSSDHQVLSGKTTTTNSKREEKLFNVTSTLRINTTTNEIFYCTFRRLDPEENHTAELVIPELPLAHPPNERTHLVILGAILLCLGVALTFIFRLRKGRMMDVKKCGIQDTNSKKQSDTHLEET

[7] = Hepatotoxicity in PD-1/PD-L1 humanized C57/BL6 mouse implanted with mouse MC38 cells assessed as effect on AST level in serum at 50 mg/kg, IG qd administered on day 5 measured after 2 weeks; assay type: toxicity, organism-based, MC-38; conditions: in vivo, po, 336 h
[8] = Apparent volume of distribution in Sprague-Dawley rat at 10 mg/kg, ip measured upto 48 hrs by LC-MS/MS analysis; assay type: ADME, organism-based; conditions: in vivo
[9] = target: Programmed cell death protein 1/Programmed cell death 1 ligand 1 (Homo sapiens) (UniProt Q15116+Q9NZQ7); test: Inhibition of PD-1/PD-L1 interaction in human PBMC cells assessed as increase in IFN-gamma secretion at 4 uM incubated for 48 hrs in presence of PD-L1 protein by ELISA assay; assay type: cell-based
MC-38 [10] = test: Antitumor activity against mouse MC38 cells implanted in PD-1/PD-L1 humanized C57/BL6 mouse assessed as increase in CD3 positive CD8 positive T cells proportion in tumor at 50 mg/kg, IG qd administered on day 5 measured after 2 weeks by flow cytometry analysis (reference value: 51.8%); assay type: functional
[11] = Hepatotoxicity in PD-1/PD-L1 humanized C57/BL6 mouse implanted with mouse MC38 cells assessed as effect on ALB level in serum at 50 mg/kg, IG qd administered on day 5 measured after 2 weeks; assay type: toxicity, organism-based, MC-38; conditions: in vivo, po, 336 h
[12] = Half life in Sprague-Dawley rat at 10 mg/kg, ip measured upto 48 hrs by LC-MS/MS analysis; assay type: ADME, organism-based; conditions: in vivo
[13] = Hepatotoxicity in PD-1/PD-L1 humanized C57/BL6 mouse implanted with mouse MC38 cells assessed as effect on ALT level in serum at 50 mg/kg, IG qd administered on day 5 measured after 2 weeks; assay type: toxicity, organism-based, MC-38; conditions: in vivo, po, 336 h
[14] = AUC (0 to t) in Sprague-Dawley rat at 40 mg/kg, IG measured upto 48 hrs by LC-MS/MS analysis; assay type: ADME, organism-based; design: dose 40 mg/kg, time < 48 hrs, route ig; conditions: in vivo, po
[15] = Bioavailability in Sprague-Dawley rat at 40 mg/kg, IG measured upto 48 hrs by LC-MS/MS analysis; assay type: ADME, organism-based; conditions: in vivo, po
[16] = Toxicity in PD-1/PD-L1 humanized C57/BL6 mouse implanted with mouse MC38 cells assessed as morphological change in liver at 50 mg/kg, IG qd administered on day 5 measured after 2 weeks by hematoxylin-eosin staining based inverted fluorescent microscopic analysis; assay type: organism-based, MC-38; conditions: in vivo, po, 336 h
[17] = Apparent volume of distribution in Sprague-Dawley rat at 40 mg/kg, IG measured upto 48 hrs by LC-MS/MS analysis; assay type: ADME, organism-based; conditions: in vivo, po
[18] = Toxicity in PD-1/PD-L1 humanized C57/BL6 mouse implanted with mouse MC38 cells assessed as morphological change in kidney at 50 mg/kg, IG qd administered on day 5 measured after 2 weeks by hematoxylin-eosin staining based inverted fluorescent microscopic analysis; assay type: organism-based, MC-38; conditions: in vivo, po, 336 h
PBMC = test: Cytotoxicity against human PBMC cells assessed as reduction in cell viability at 1 to 4 uM measured after 48 hrs by CCK-8 assay; assay type: toxicity, cell-based; conditions: dose 1-4 µM
[19] = AUC (0 to t) in Sprague-Dawley rat at 8 mg/kg, iv measured upto 48 hrs by LC-MS/MS analysis; assay type: ADME, organism-based; design: dose 8 mg/kg, time < 48 hrs, route iv; conditions: in vivo
[20] = Tmax in Sprague-Dawley rat at 10 mg/kg, ip measured upto 48 hrs by LC-MS/MS analysis; assay type: ADME, organism-based; conditions: in vivo
[21] = AUC (0 to t) in Sprague-Dawley rat at 10 mg/kg, ip measured upto 48 hrs by LC-MS/MS analysis; assay type: ADME, organism-based; design: time < 48 hrs, dose 10 mg/kg, route ip; conditions: in vivo
MC-38 [22] = test: Immunomodulatory activity in mouse MC38 cells implanted in PD-1/PD-L1 humanized C57/BL6 mouse assessed as increase in CXCL9 mRNA expression level in tumor at 50 mg/kg, IG qd administered on day 5 measured after 2 weeks by RT-PCR analysis; assay type: functional, organism-based
MC-38 [23] = test: Immunomodulatory activity in mouse MC38 cells implanted in PD-1/PD-L1 humanized C57/BL6 mouse assessed as decrease in PD-L1 mRNA expression level in tumor at 50 mg/kg, IG qd administered on day 5 measured after 2 weeks by RT-PCR analysis; assay type: functional, organism-based
[24] = Clearance in Sprague-Dawley rat at 10 mg/kg, ip measured upto 48 hrs by LC-MS/MS analysis; assay type: ADME, organism-based; conditions: in vivo
MC-38 [25] = test: Antitumor activity against mouse MC38 cells expressing human PD-L1 protein assessed as reduction in cell viability measured after 48 hrs by CCK-8 assay; assay type: functional, cell-based; conditions: MC-38, 48 h
MC-38 [26] = test: Antitumor activity against mouse MC38 cells implanted in PD-1/PD-L1 humanized C57/BL6 mouse assessed as increase in perforin levels at 50 mg/kg, IG qd administered on day 5 measured after 2 weeks by microscopic analysis; assay type: functional, organism-based
[27] = Tmax in Sprague-Dawley rat at 40 mg/kg, IG measured upto 48 hrs by LC-MS/MS analysis; assay type: ADME, organism-based; conditions: in vivo, po
[28] = Nephrotoxicity in PD-1/PD-L1 humanized C57/BL6 mouse implanted with mouse MC38 cells assessed as effect on urea level in serum at 50 mg/kg, IG qd administered on day 5 measured after 2 weeks; assay type: toxicity, organism-based, MC-38; conditions: in vivo, po, 336 h
[29] = Hepatotoxicity in PD-1/PD-L1 humanized C57/BL6 mouse implanted with mouse MC38 cells assessed as effect on total protein level in serum at 50 mg/kg, IG qd administered on day 5 measured after 2 weeks; assay type: toxicity, organism-based, MC-38; conditions: in vivo, po, 336 h
[30] = Toxicity in PD-1/PD-L1 humanized C57/BL6 mouse implanted with mouse MC38 cells assessed as change in body weight at 50 mg/kg, IG qd administered on day 5 measured after 2 weeks; assay type: organism-based, MC-38; conditions: in vivo, po, 336 h
[31] = Cmax in Sprague-Dawley rat at 40 mg/kg, IG measured upto 48 hrs by LC-MS/MS analysis; assay type: ADME, organism-based; design: dose 40 mg/kg, time < 48 hrs, route ig; conditions: in vivo, po
[32] = Toxicity in PD-1/PD-L1 humanized C57/BL6 mouse implanted with mouse MC38 cells assessed as mortality at 50 mg/kg, IG qd administered on day 5 measured after 2 weeks; assay type: organism-based, MC-38; conditions: in vivo, po, 336 h

SMILES: N#Cc1cncc(COc2cc(OCc3cccc(-c4ccccc4F)c3Cl)ccc2CNCCO)c1
- Activity (MC-38 [1]): Active
- CL/F [2]: 10.3 mL/min/kg
- Vd [3]: 1.09 L/kg
- Activity [4]: Non-Toxic
- Cmax [5]: 4160 ng/mL
- IC50 [6]: 24 µM
- Activity [7]: Non-Toxic
- Vz [8]: 2.94 L/kg
- inhibition [9]: Active
- Activity (MC-38 [10]): 67.4%
- Activity [11]: Non-Toxic
- half-life [12]: 2.43 h
- Activity [13]: Non-Toxic
- AUC(0-t) at 48 h [14]: 63600 ng·h/mL
- bioavailability [15]: 114%
- Activity [16]: Non-Toxic
- Vz [17]: 1.8 L/kg
- Activity [18]: Non-Toxic
- Activity (PBMC): Non-Toxic
- AUC(0-t) at 48 h [19]: 11500 ng·h/mL
- Tmax [20]: 0.88 h
- AUC(0-t) at 48 h [21]: 9730 ng·h/mL
- Activity (MC-38 [22]): Active
- Activity (MC-38 [23]): Active
- CL/F [24]: 20.2 mL/min/kg
- IC50 (MC-38 [25]): > 8 µM
- Activity (MC-38 [26]): Active
- Tmax [27]: 1.75 h
- Activity [28]: Non-Toxic
- Activity [29]: Non-Toxic
- Activity [30]: Non-Toxic
- Cmax [31]: 21500 ng/mL
- Activity [32]: Non-Toxic
